Measurements as given in patent EP2682005A1, “A dietary supplement composition” (Symrise AG, priority 2012, dated 2014).

Key:
Type in all cases: biochemical
[1] = Activity against free radicals, Method B (hydroxyl radicals from hydrogen peroxide with iron (II) ions and EDTA, desoxyribose oxidation); conditions: optical density at 532 nm
Experimental: (§1) The effectiveness of the test substances against free radicals was tested by various chemical and biochemical methods: Method A A first test was carried out using diphenylpicrylhydrazyl (DPPH°) which is a relatively stable radical that forms a purple-coloured solution. The optical density (DO) at 513 nm was determined. Method B Hydroxyl radicals were released from hydrogen peroxide in the presence of iron (II) ions and EDTA and were used to oxidize desoxyribose. The oxidation product forms a pink-coloured compound with thiobarbituric acid. Its concentration corresponds to the optical density at 532 nm. A test was conducted to determine whether less desoxyribose is oxidized, i.e. whether fewer free radicals are released, in the presence of the test products. […] Method D Xanthine oxidase is an enzyme which is released through oxidative stress and catabolizes the decomposition of the purine bases adenine and guanine into uronic acid and superoxide anions. The superoxide anions dismute into hydrogen peroxide and oxygen either spontaneously or in the presence of Superoxid Dismutase. The quantity of superoxide anion can be determined by NBT reduction via the optical density at 490 nm. A test was conducted to determine whether fewer superoxide anions are generated or more anions are destroyed in the presence of the test substances. […]

[2] = Activity against free radicals, Method A (DPPH radical, optical density at 513 nm)
Experimental: The effectiveness of the test substances against free radicals was tested by various chemical and biochemical methods: Method A A first test was carried out using diphenylpicrylhydrazyl (DPPH°) which is a relatively stable radical that forms a purple-coloured solution. The optical density (DO) at 513 nm was determined. Method B Hydroxyl radicals were released from hydrogen peroxide in the presence of iron (II) ions and EDTA and were used to oxidize desoxyribose. The oxidation product forms a pink-coloured compound with thiobarbituric acid. Its concentration corresponds to the optical density at 532 nm. A test was conducted to determine whether less desoxyribose is oxidized, i.e. whether fewer free radicals are released, in the presence of the test products. […] Method D Xanthine oxidase is an enzyme which is released through oxidative stress and catabolizes the decomposition of the purine bases adenine and guanine into uronic acid and superoxide anions. The superoxide anions dismute into hydrogen peroxide and oxygen either spontaneously or in the presence of Superoxid Dismutase. The quantity of superoxide anion can be determined by NBT reduction via the optical density at 490 nm. A test was conducted to determine whether fewer superoxide anions are generated or more anions are destroyed in the presence of the test substances. The results are set out in Table 1 and represent the EC50 values in % (w/v).

[3] = Activity against free radicals, Method C (desoxyribose oxidation in the absence of EDTA, forming inactive iron complexes); conditions: as Method B in the absence of EDTA
Experimental: as §1

Xanthine oxidase = Xanthine oxidase (Homo sapiens, UniProt P47989); experiment: Activity against free radicals, Method D (xanthine oxidase, superoxide anion by NBT reduction); conditions: optical density at 490 nm
Xanthine oxidase, sequence (P47989 whole entry, species assumed): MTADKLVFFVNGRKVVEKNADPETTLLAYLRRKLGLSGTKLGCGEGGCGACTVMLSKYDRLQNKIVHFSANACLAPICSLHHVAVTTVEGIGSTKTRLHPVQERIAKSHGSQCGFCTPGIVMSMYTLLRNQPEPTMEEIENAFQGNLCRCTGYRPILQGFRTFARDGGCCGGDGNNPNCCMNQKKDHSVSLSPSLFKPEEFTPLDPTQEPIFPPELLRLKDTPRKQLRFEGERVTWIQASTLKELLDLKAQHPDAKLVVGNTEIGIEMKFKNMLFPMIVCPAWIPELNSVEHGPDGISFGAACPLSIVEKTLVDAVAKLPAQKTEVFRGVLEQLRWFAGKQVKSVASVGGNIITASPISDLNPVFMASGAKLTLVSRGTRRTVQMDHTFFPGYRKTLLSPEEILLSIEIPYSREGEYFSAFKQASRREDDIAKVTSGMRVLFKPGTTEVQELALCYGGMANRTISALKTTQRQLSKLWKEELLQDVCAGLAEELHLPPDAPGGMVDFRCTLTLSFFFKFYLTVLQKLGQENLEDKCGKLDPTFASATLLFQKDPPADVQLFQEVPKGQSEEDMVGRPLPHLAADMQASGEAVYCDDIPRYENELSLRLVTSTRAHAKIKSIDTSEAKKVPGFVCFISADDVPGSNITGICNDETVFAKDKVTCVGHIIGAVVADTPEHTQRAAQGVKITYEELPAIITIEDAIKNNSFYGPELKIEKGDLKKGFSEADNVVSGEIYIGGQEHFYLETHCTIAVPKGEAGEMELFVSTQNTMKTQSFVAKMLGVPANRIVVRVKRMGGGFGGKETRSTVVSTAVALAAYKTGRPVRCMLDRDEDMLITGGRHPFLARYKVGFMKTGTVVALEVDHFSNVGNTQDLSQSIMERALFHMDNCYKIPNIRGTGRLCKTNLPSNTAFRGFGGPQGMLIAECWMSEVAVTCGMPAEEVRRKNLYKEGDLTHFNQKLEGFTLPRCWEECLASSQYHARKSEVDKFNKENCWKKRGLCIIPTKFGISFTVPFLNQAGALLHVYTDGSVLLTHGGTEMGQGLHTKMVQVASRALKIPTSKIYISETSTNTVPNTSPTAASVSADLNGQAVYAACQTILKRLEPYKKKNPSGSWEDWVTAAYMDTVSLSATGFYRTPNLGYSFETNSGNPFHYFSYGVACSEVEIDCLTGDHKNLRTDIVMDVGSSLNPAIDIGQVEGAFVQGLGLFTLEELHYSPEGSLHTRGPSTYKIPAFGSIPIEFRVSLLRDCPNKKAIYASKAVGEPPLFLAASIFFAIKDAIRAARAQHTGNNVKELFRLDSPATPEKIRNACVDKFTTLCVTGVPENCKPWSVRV
Experimental: The effectiveness of the test substances against free radicals was tested by various chemical and biochemical methods: Method A A first test was carried out using diphenylpicrylhydrazyl (DPPH°) which is a relatively stable radical that forms a purple-coloured solution. The optical density (DO) at 513 nm was determined. Method B Hydroxyl radicals were released from hydrogen peroxide in the presence of iron (II) ions and EDTA and were used to oxidize desoxyribose. The oxidation product forms a pink-coloured compound with thiobarbituric acid. Its concentration corresponds to the optical density at 532 nm. A test was conducted to determine whether less desoxyribose is oxidized, i.e. whether fewer free radicals are released, in the presence of the test products. […] Method D Xanthine oxidase is an enzyme which is released through oxidative stress and catabolizes the decomposition of the purine bases adenine and guanine into uronic acid and superoxide anions. The superoxide anions dismute into hydrogen peroxide and oxygen either spontaneously or in the presence of Superoxid Dismutase. The quantity of superoxide anion can be determined by NBT reduction via the optical density at 490 nm. A test was conducted to determine whether fewer superoxide anions are generated or more anions are destroyed in the presence of the test substances.
The results are set out in Table 1 and represent the EC50 values in % (w/v).

Compound	EC50, Method B [1]	EC50, Method A [2]	EC50, Method C [3]	EC50, Method D (Xanthine oxidase)
O=C1O[C@H]([C@@H](O)CO)C(O)=C1O [Ascorbic acid]	0.26 % (w/v)	0.0013 % (w/v)	0.9 % (w/v)	0.59 % (w/v)
Butylhydroxytoluol		0.0500 % (w/v)		No effect
Tocopherol		0.0067 % (w/v)		No effect
